Measured values as given in patent US20200331904A1, “3-AMINO-[1,2,4]-TRIAZOLE DERIVATIVES AND THEIR USE FOR CONTROLLING UNDESIRED PLANT GROWTH” (Bayer CropScience Aktiengesellschaft, priority 2017, published 2020).

Tests used:
Assay type in all cases: in vivo
[1] = test system: Echinochloa crus-galli; experiment: Pre-emergence herbicidal efficacy, ECHCG; settings: Table B1, application rate 320 g/ha, scored visually after about 3 weeks vs untreated controls
Source text: (§1) C.1 Pre-Emergence Herbicidal Action and Crop Plant Compatibility
(§2) Seeds of monocotyledonous and dicotyledonous weed plants and crop plants are placed in plastic or organic planting pots and covered with soil. The compounds of the invention, formulated in the form of wettable powders (WP) or as emulsion concentrates (EC), are then applied onto the surface of the covering soil as aqueous suspension or emulsion with addition of 0.5% additive at a water application rate of […] (converted). After the treatment, the pots are placed in a greenhouse and kept under good growth conditions for the trial plants. After about 3 weeks, the effect of the preparations is scored visually in comparison with untreated controls as percentages. For example, 100% activity=the plants have died, 0% activity=like control plants.
(§3) ABUTH: Abutilon theophrasti ALOMY: Alopecurus myosuroides AMARE: Amaranthus retroflexus AVEFA: Avena fatua CYPES: Cyperus esculentus ECHCG: Echinochloa crus-galli LOLMU: Lolium multiflorum MATIN: Matricaria inodora PHBPU: Ipomoea purpurea POLCO: Polygonum convolvulus SETVI: Setaria viridis STEME: Stellaria media VERPE: Veronica persica VTOTR: Viola tricolor

[2] = test system: Lolium rigidum; experiment: Pre-emergence herbicidal efficacy, LOLRI; settings: Table B1, application rate 320 g/ha, scored visually after about 3 weeks vs untreated controls
Source text: C.1 Pre-Emergence Herbicidal Action and Crop Plant Compatibility Seeds of monocotyledonous and dicotyledonous weed plants and crop plants are placed in plastic or organic planting pots and covered with soil. The compounds of the invention, formulated in the form of wettable powders (WP) or as emulsion concentrates (EC), are then applied onto the surface of the covering soil as aqueous suspension or emulsion with addition of 0.5% additive at a water application rate of […] (converted). After the treatment, the pots are placed in a greenhouse and kept under good growth conditions for the trial plants. After about 3 weeks, the effect of the preparations is scored visually in comparison with untreated controls as percentages. For example, 100% activity=the plants have died, 0% activity=like control plants. […] Here, for example, compound Nos. I-214 and I-196, when applied pre-emergence, have very good activity (80% to 100% herbicidal activity) against harmful plants such as Abutilon theophrasti, Amaranthus retroflexus, Echinochloa crus-galli, Lolium rigidum, Matricaria inodora, Polygonum convolvulus, Setaria viridis, Stellaria media, Veronica persica and Viola tricolor at an application rate of 0.32 kg of active substance or less per hectare. At the same time, some of the compounds according to the invention leave Gramineae crops such as barley, wheat, rye, millet/sorghum, corn, rice or sugar cane virtually undamaged when applied pre-emergence, even at high active compound dosages. In addition, some substances are also harmless to dicotyledonous crops such as soya, cotton, oilseed rape or sugar beet.

[3] = test system: Setaria viridis; experiment: Pre-emergence herbicidal efficacy, SETVI; settings: Table B1, application rate 320 g/ha, scored visually after about 3 weeks vs untreated controls
Source text: as §1, §2, §3

[4] = test system: Abutilon theophrasti; experiment: Pre-emergence herbicidal efficacy, ABUTH; settings: Table B1, application rate 320 g/ha, scored visually after about 3 weeks vs untreated controls
Source text: as §1, §2, §3

[5] = test system: Amaranthus retroflexus; experiment: Pre-emergence herbicidal efficacy, AMARE; settings: Table B1, application rate 320 g/ha, scored visually after about 3 weeks vs untreated controls
Source text: as §1, §2, §3

[6] = test system: Matricaria inodora; experiment: Pre-emergence herbicidal efficacy, MATIN
Method in brief: (§4)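 Visual percent activity relative to untreated plants (0% = like control, 100% = dead), scored about 3 weeks after treatment under greenhouse conditions.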

[7] = test system: Polygonum convolvulus; experiment: Pre-emergence herbicidal efficacy, POLCO; settings: Table B1, application rate 320 g/ha, scored visually after about 3 weeks vs untreated controls
Source text: as §1, §2, §3

[8] = test system: Stellaria media; experiment: Pre-emergence herbicidal efficacy, STEME
Method in brief: as §4

[9] = test system: Viola tricolor; experiment: Pre-emergence herbicidal efficacy, VIOTR
Method in brief: as §4

[10] = test system: Veronica persica; experiment: Pre-emergence herbicidal efficacy, VERPE; settings: Table B1, application rate 320 g/ha, scored visually after about 3 weeks vs untreated controls
Source text: as §1, §2, §3

[11] = Table B1, application rate 320 g/ha, scored visually after about 3 weeks vs untreated controls
[12] = application rate 320 g/ha, scored visually after about 3 weeks

Compound | Herbicidal efficacy against ECHCG [1] | Herbicidal efficacy against LOLRI [2] | Herbicidal efficacy against SETVI [3] | Herbicidal efficacy against ABUTH [4] | Herbicidal efficacy against AMARE [5] | Herbicidal efficacy against MATIN [6, 11] | Herbicidal efficacy against POLCO [7] | Herbicidal efficacy against STEME [8, 11] | Herbicidal efficacy against VIOTR [9, 11] | Herbicidal efficacy against VERPE [10] | Herbicidal efficacy against MATIN [6, 12] | Herbicidal efficacy against STEME [8, 12] | Herbicidal efficacy against VIOTR [9, 12]
Cc1ccc2c(c1)C(Nc1nc3n(n1)CCN(C(C)C)C3)C(C)C2 (centres unmarked) [Example I-152] | 100% | 100% | 100% | 100% | 100% | 100% | 100% | 100% | 100% | 100% |  |  | 
Cc1ccc2c(c1)C(Nc1nc3n(n1)CCN(C(=O)C1CC1)C3)C(C)C2 (centres unmarked) [Example I-167] | 100% | 100% | 100% | 100% | 100% | 100% | 100% | 100% | 100% | 100% |  |  | 
Cc1ccc2c(c1)C(Nc1nc3n(n1)CCN(C(=O)c1ccc(Cl)cc1)C3)C(C)C2 (centres unmarked) [Example I-171] | 90% | 100% | 100% | 100% | 100% | 100% | 100% | 100% | 100% | 100% |  |  | 
Cc1ccc2c(c1)[C@H](Nc1nc3n(n1)CCN(C(=O)C1CC1)C3)CC2 [Example I-175] | 100% | 100% | 100% | 100% | 100% | 100% | 100% | 100% | 100% | 100% |  |  | 
Cc1ccc2c(c1)[C@H](Nc1nc3n(n1)CCN(C(=O)C1CC1)C3)CCC2 [Example I-182] | 90% | 100% | 100% | 100% | 100% | 100% | 100% | 100% | 100% | 100% |  |  | 
Cc1ccc2c(c1)[C@H](Nc1nc3n(n1)CCN(S(=O)(=O)C(C)C)C3)[C@@H](C)C2 [Example I-191] | 100% | 100% | 100% | 100% | 100% | 100% | 100% | 100% | 100% | 100% |  |  | 
Cc1ccc2c(c1)[C@H](Nc1nc3n(n1)CCN(S(C)(=O)=O)C3)CC2 [Example I-196] | 100% | 100% | 100% | 100% | 100% | 100% | 100% | 100% | 100% | 100% |  |  | 
Cc1ccc2c(c1)[C@H](Nc1nc3n(n1)CCN(S(=O)(=O)C(C)C)C3)CC2 [Example I-197] | 90% | 80% | 100% | 100% | 100% | 100% | 80% | 100% | 100% | 100% |  |  | 
Fc1ccc2c(c1)[C@H](Nc1nc3n(n1)CCCCS3)CCC2 [Example I-215] | 100% | 100% | 100% | 100% | 100% | 100% | 100% | 100% | 100% | 100% |  |  | 
Cc1ccc2c(c1)C(Nc1nc3n(n1)CCCS3(=O)=O)CC2 (centres unmarked) [Example I-238] | 80% | 90% | 100% | 100% | 100% | 100% | 100% | 100% | 100% | 100% |  |  | 
Cc1ccc2c(c1)C(Nc1nc3n(n1)CCCC[S+]3[O-])CCC2 (centres unmarked) [Example I-246] | 100% | 100% | 100% | 80% | 100% | 100% | 100% | 100% | 100% | 100% |  |  | 
Cc1ccc2c(c1)C(Nc1nc3n(n1)CCC(=O)N3CC1CC1)CCC2 (centres unmarked) [Example I-254] | 80% | 100% | 100% | 100% | 100% | 100% | 100% | 100% | 100% | 100% |  |  | 
CC(=O)N1CCCn2nc(NC3CCCc4ccc(C)cc43)nc21 (centres unmarked) [Example I-321] |  | 100% |  | 80% | 100% | 100% | 90% | 100% | 100% | 100% | 100% | 100% | 100%
CC1CCc2ccccc2C1Nc1nc2n(n1)CCCCS2 (centres unmarked) [Example I-356] | 100% | 100% | 100% |  | 100% | 100% | 100% | 100% | 100% | 100% |  |  | 
Cc1ccc2c(c1)C(Nc1nc3n(n1)CCC[S+]3[O-])C(C)C2 (centres unmarked) [Example I-360] | 90% |  | 100% | 100% | 100% | 100% | 100% | 100% | 100% | 100% |  |  | 
Cc1ccc2c(c1)[C@H](Nc1nc3n(n1)CCCCS3(=O)=O)CCO2 [Example I-381] |  | 100% | 100% | 100% | 100% | 100% | 100% | 100% | 100% | 100% |  |  | 
